Columns and labels:
[1] = tested on: HeLa; experiment: Cytotoxicity against human HeLa cells assessed as inhibition of cell growth incubated for 48 hrs by MTT assay; assay type: functional, cell-based
[2] = tested on: A549; experiment: Cytotoxicity against human A549 cells assessed as inhibition of cell growth incubated for 48 hrs by MTT assay; assay type: functional, cell-based; details: A549, 48 h
[3] = tested on: L1210; experiment: Antiproliferative activity against mouse L1210 cells assessed as inhibition of cell proliferation incubated for 48 hrs by coulter counter assay; assay type: functional, cell-based; details: L1210, 48 h
[4] = tested on: CCRF-CEM; experiment: Antiproliferative activity against human CEM cells assessed as inhibition of cell proliferation incubated for 48 hrs by coulter counter assay; assay type: functional, cell-based
[5] = tested on: HeLa; experiment: Antiproliferative activity against human HeLa cells assessed as inhibition of cell proliferation incubated for 48 hrs by coulter counter assay; assay type: functional, cell-based
[6] = Antiproliferative activity against human HMEC-1 cells assessed as inhibition of cell proliferation incubated for 48 hrs by coulter counter assay; assay type: toxicity, cell-based
[7] = tested on: HepG2; experiment: Antiproliferative activity against human HepG2 cells assessed as inhibition of cell proliferation incubated for 48 hrs by MTT assay; assay type: functional, cell-based; details: HepG2, 48 h
[8] = tested on: HCT-116; experiment: Antiproliferative activity against human HCT-116 cells assessed as inhibition of cell proliferation incubated for 48 hrs by MTT assay; assay type: functional, cell-based; details: HCT-116, 48 h
[9] = tested on: K562; experiment: Antiproliferative activity against human K562 cells assessed as inhibition of cell proliferation incubated for 48 hrs by MTT assay; assay type: functional, cell-based; details: K562, 48 h
[10] = tested on: MDA-MB-231; experiment: Antiproliferative activity against human MDA-MB-231 cells assessed as inhibition of cell proliferation incubated for 48 hrs by MTT assay; assay type: functional, cell-based; details: MDA-MB-231, 48 h
[11] = tested on: SMMC-7721; experiment: Antiproliferative activity against human SMMC-7721 cells assessed as inhibition of cell proliferation incubated for 48 hrs by MTT assay; assay type: functional, cell-based; details: SMMC-7721, 48 h

Row | SMILES | IC50 [1] | IC50 [2] | IC50 [7] | IC50 [11] | also measured
1 | CCOc1ccc(-c2cc(C(F)(F)F)nn2-c2ccc3c4c(cccc24)C(=O)N(CCN(C)C)C3=O)cc1 | 5.06 µM | 5.06 µM |  |  | 
2 | CCOP(=O)(CCOCCn1cc(CN2C(=O)c3cccc4cc([N+](=O)[O-])cc(c34)C2=O)nn1)OCC |  |  |  |  | IC50 [3]: > 250 µM; IC50 [4]: > 250 µM; IC50 [5]: > 250 µM; IC50 at 48 h [6]: > 250 µM
3 | COc1cc(OC)cc(-c2cc(C(F)(F)F)nn2-c2ccc3c4c(cccc24)C(=O)N(CCN(C)C)C3=O)c1 | 5.06 µM | 5.06 µM |  |  | 
4 | COc1cc(-c2cc(C(F)(F)F)nn2-c2ccc3c4c(cccc24)C(=O)N(CCN(C)C)C3=O)cc(OC)c1OC | 5.06 µM | 5.06 µM |  |  | 
5 | NCCCNCCCNCC(=O)NCCCN1C(=O)c2cccc3cccc(c23)C1=O |  |  | 2.86 µM |  | IC50 [8]: 2.86 µM; IC50 [9]: 2.86 µM; IC50 [10]: 2.86 µM
6 | CCCCCOC(=O)c1ccc2c3c(cccc13)C(=O)N(CCN(C)C)C2=O |  |  | > 50 µM | > 50 µM | IC50 [8]: > 50 µM; IC50 [9]: > 50 µM
7 | CCOP(=O)(CCCn1cc(CN2C(=O)c3cccc4c(Br)ccc(c34)C2=O)nn1)OCC |  |  |  |  | IC50 [3]: > 250 µM; IC50 [4]: > 250 µM; IC50 [5]: > 250 µM; IC50 at 48 h [6]: > 250 µM
8 | CN(C)CCN1C(=O)c2cccc3c2c(cc2c(NCCCCN4CCCC4)ncnc23)C1=O |  |  | 1.12 µM | 1.12 µM | IC50 [10]: 1.12 µM
9 | CCOP(=O)(CCCCn1cc(CN2C(=O)c3cccc4cc([N+](=O)[O-])cc(c34)C2=O)nn1)OCC |  |  |  |  | IC50 [3]: > 250 µM; IC50 [4]: > 250 µM; IC50 [5]: > 250 µM; IC50 at 48 h [6]: > 250 µM
10 | CCCCOc1ccccc1-c1cc(C(F)(F)F)nn1-c1ccc2c3c(cccc13)C(=O)N(CCN(C)C)C2=O | 5.06 µM | 5.06 µM |  |  | 
11 | CCCOC(=O)c1ccc2c3c(cccc13)C(=O)N(CCN(C)C)C2=O |  |  | > 50 µM | > 50 µM | IC50 [8]: > 50 µM; IC50 [9]: > 50 µM
12 | CCCOc1ccc(-c2cc(C(F)(F)F)nn2-c2ccc3c4c(cccc24)C(=O)N(CCN(C)C)C3=O)cc1 | 5.06 µM | 5.06 µM |  |  | 
13 | NCCCCN1C(=O)c2cccc3c2c(cc2c(=O)[nH]cnc23)C1=O |  |  | 2.64 µM | 2.64 µM | IC50 [10]: 2.64 µM
14 | NCCCN1C(=O)c2cccc3cccc(c23)C1=O |  |  | 1.61 µM | 1.61 µM | 
15 | NCCCCNCCCCNCCCCNCC(=O)NCCCN1C(=O)c2cccc3cccc(c23)C1=O |  |  | 2.86 µM |  | IC50 [8]: 2.86 µM; IC50 [9]: 2.86 µM; IC50 [10]: 2.86 µM
16 | CCOP(=O)(CCn1cc(CN2C(=O)c3cccc4c(Br)ccc(c34)C2=O)nn1)OCC |  |  |  |  | IC50 [3]: > 250 µM; IC50 [4]: > 250 µM; IC50 [5]: > 250 µM; IC50 at 48 h [6]: > 250 µM
17 | CN(C)CCNc1ncnc2c1cc1c3c(cccc32)C(=O)N(CCN(C)C)C1=O |  |  | 1.12 µM | 1.12 µM | IC50 [10]: 1.12 µM
18 | CCOC(=O)c1ccc2c3c(cccc13)C(=O)N(CCN(C)C)C2=O |  |  | 25.9 µM | 13.7 µM | IC50 [8]: > 50 µM; IC50 [9]: > 50 µM
19 | CCCOc1cccc(-c2cc(C(F)(F)F)nn2-c2ccc3c4c(cccc24)C(=O)N(CCN(C)C)C3=O)c1 | 5.06 µM | 5.06 µM |  |  | 
20 | COc1ccccc1-c1cc(C(F)(F)F)nn1-c1ccc2c3c(cccc13)C(=O)N(CCN(C)C)C2=O | 5.06 µM | 5.06 µM |  |  | 
21 | CN(C)CCN1C(=O)c2cccc3c2c(cc2c(NCCCN4CCOCC4)ncnc23)C1=O |  |  | 1.12 µM | 1.12 µM | IC50 [10]: 1.12 µM
22 | NCCCNCCCN1C(=O)c2cccc3c2c(cc2c(=O)[nH]cnc23)C1=O |  |  | 2.64 µM | 2.64 µM | IC50 [10]: 2.64 µM
23 | CCCCOc1ccc(-c2cc(C(F)(F)F)nn2-c2ccc3c4c(cccc24)C(=O)N(CCN(C)C)C3=O)cc1 | 5.06 µM | 5.06 µM |  |  | 
24 | CCCCN1C(=O)c2cccc3c2c(cc2c(=O)[nH]cnc23)C1=O |  |  | 2.64 µM | 2.64 µM | IC50 [10]: 2.64 µM

Row | SMILES | IC50 [1] | IC50 [2] | IC50 [7] | IC50 [11] | also measured
25 | O=C1c2cccc3c2c(cc2c(=O)[nH]cnc23)C(=O)N1CCCCN1CCOCC1 |  |  | 2.64 µM | 2.64 µM | IC50 [10]: 2.64 µM
26 | CCCCOc1cc(OCCCC)cc(-c2cc(C(F)(F)F)nn2-c2ccc3c4c(cccc24)C(=O)N(CCN(C)C)C3=O)c1 | 5.06 µM | 5.06 µM |  |  | 
27 | CCCCCCCCOC(=O)c1ccc2c3c(cccc13)C(=O)N(CCN(C)C)C2=O |  |  | > 50 µM | > 50 µM | IC50 [8]: > 50 µM; IC50 [9]: > 50 µM
28 | COc1cccc(-c2cc(C(F)(F)F)nn2-c2ccc3c4c(cccc24)C(=O)N(CCN(C)C)C3=O)c1 | 5.06 µM | 5.06 µM |  |  | 
29 | NCCCNCC(=O)NCCCN1C(=O)c2cccc3cccc(c23)C1=O |  |  | 2.86 µM |  | IC50 [8]: 2.86 µM; IC50 [9]: 2.86 µM; IC50 [10]: 2.86 µM
30 | CCCOc1cc(OCCC)cc(-c2cc(C(F)(F)F)nn2-c2ccc3c4c(cccc24)C(=O)N(CCN(C)C)C3=O)c1 | 5.06 µM | 5.06 µM |  |  | 
31 | COc1ccc(-c2cc(C(F)(F)F)nn2-c2ccc3c4c(cccc24)C(=O)N(CCN(C)C)C3=O)cc1 | 5.06 µM | 5.06 µM |  |  | 
32 | CN(C)CCN1C(=O)c2cccc3c2c(cc2c(=O)[nH]cnc23)C1=O |  |  | 2.64 µM | 2.64 µM | IC50 [10]: 2.64 µM
33 | COC(=O)c1ccc2c3c(cccc13)C(=O)N(CCN(C)C)C2=O |  |  | 22.1 µM | 22.1 µM | IC50 [8]: > 50 µM; IC50 [9]: > 50 µM
34 | CN(C)CCN1C(=O)c2cccc3c2c(cc2c(NCCCNCCCN)ncnc23)C1=O |  |  | 1.57 µM | 1.57 µM | IC50 [10]: 1.57 µM
35 | CCCOc1ccccc1-c1cc(C(F)(F)F)nn1-c1ccc2c3c(cccc13)C(=O)N(CCN(C)C)C2=O | 5.06 µM | 5.06 µM |  |  | 
36 | CCOc1cc(OCC)cc(-c2cc(C(F)(F)F)nn2-c2ccc3c4c(cccc24)C(=O)N(CCN(C)C)C3=O)c1 | 5.06 µM | 5.06 µM |  |  | 
37 | Cc1ccc(-c2cc(C(F)(F)F)nn2-c2ccc3c4c(cccc24)C(=O)N(CCN(C)C)C3=O)cc1 | 5.06 µM | 5.06 µM |  |  | 
38 | COc1ccc(-c2cc(C(F)(F)F)nn2-c2ccc3c4c(cccc24)C(=O)N(CCN(C)C)C3=O)cc1OC | 5.06 µM | 5.06 µM |  |  | 
39 | CCCCOc1cccc(-c2cc(C(F)(F)F)nn2-c2ccc3c4c(cccc24)C(=O)N(CCN(C)C)C3=O)c1 | 5.06 µM | 5.06 µM |  |  | 
40 | CCOc1ccccc1-c1cc(C(F)(F)F)nn1-c1ccc2c3c(cccc13)C(=O)N(CCN(C)C)C2=O | 5.06 µM | 5.06 µM |  |  | 
41 | CN(C)CCN1C(=O)c2cccc3c(-n4nc(C(F)(F)F)cc4-c4ccccc4)ccc(c23)C1=O | 5.06 µM | 5.06 µM |  |  | 
42 | CCCCOC(=O)c1ccc2c3c(cccc13)C(=O)N(CCN(C)C)C2=O |  |  | > 50 µM | > 50 µM | IC50 [8]: > 50 µM; IC50 [9]: > 50 µM
43 | CCOc1cccc(-c2cc(C(F)(F)F)nn2-c2ccc3c4c(cccc24)C(=O)N(CCN(C)C)C3=O)c1 | 5.06 µM | 5.06 µM |  |  | 
44 | CN(C)CCN1C(=O)c2cccc3c2c(cc2c(NCCCCN)ncnc23)C1=O |  |  | 1.12 µM | 1.12 µM | IC50 [10]: 1.12 µM
45 | CCCCCCOC(=O)c1ccc2c3c(cccc13)C(=O)N(CCN(C)C)C2=O |  |  | > 50 µM | > 50 µM | IC50 [8]: > 50 µM; IC50 [9]: > 50 µM
46 | CCCCCCCCCCCCCCOC(=O)c1ccc2c3c(cccc13)C(=O)N(CCN(C)C)C2=O |  |  | > 50 µM | > 50 µM | IC50 [8]: > 50 µM; IC50 [9]: > 50 µM
47 | NCCCNCCCN1C(=O)c2cccc3cccc(c23)C1=O |  |  | 1.61 µM | 1.61 µM | 

From ChEMBL document CHEMBL5244223, “l,8-Naphthalimide based DNA intercalators and anticancer agents. A systematic review from 2007 to 2017” (Eur J Med Chem, 2018)
